Results: patent US12077503B2, “Substituted cyclic amides and their use as herbicides” (FMC CORPORATION, priority 2015, dated 2024)

What was measured:
Format in all cases: in vivo
corn (Zea mays) [1] = experiment: Test G Pre-Emergence Protocol; settings: evaluated after 13 days; for plant injury at 15.625 g/ha / plant injury at 62.5 g/ha / plant injury at 250 g/ha: Zea mays, pre-emergence, 312 h; for plant injury at 15.625 g/ha / plant injury at 250 g/ha: read-out: Corn damage rating (100=total damage to plant; 0=no damage to plant); for plant injury at 62.5 g/ha: 62.5 g ai/ha, 100=total damage to plant, 0=no damage to plant, read-out: Corn damage rating
Procedure, shortened: (§1)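 Pots of seeds in standard soil were grown for one day in a glasshouse (24/16 °C day/night, 14 h light, 65% humidity), then sprayed with compound in acetone/water 50:50 with 0.5% Tween 20 at 15.625, 62.5 or 250 g/ha. Damage was scored after 13 days on a 0 (none) to 100 (total) scale.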

[2] = test system: redroot pigweed (Amaranthus retroflexus); experiment: Test G Pre-Emergence Protocol; settings: evaluated after 13 days; for pest or weed control at 15.625 g/ha / pest or weed control at 62.5 g/ha / pest or weed control at 250 g/ha: Amaranthus retroflexus, pre-emergence, 312 h; for pest or weed control at 15.625 g/ha / pest or weed control at 250 g/ha: read-out: Pigweed, Redroot damage rating (100=total damage to plant; 0=no damage to plant); for pest or weed control at 62.5 g/ha: 62.5 g ai/ha, 100=total damage to plant, 0=no damage to plant, read-out: Pigweed, Redroot damage rating
Procedure, shortened: as §1

[3] = test system: barnyardgrass (Echinochloa crus-galli); experiment: Test G Pre-Emergence Protocol; settings: Echinochloa crus-galli, pre-emergence, 312 h, evaluated after 13 days; for pest or weed control at 15.625 g/ha: 15.625 g ai/ha; for pest or weed control at 15.625 g/ha / pest or weed control at 250 g/ha: read-out: Barnyardgrass damage rating (100=total damage to plant; 0=no damage to plant); for pest or weed control at 62.5 g/ha: 62.5 g ai/ha, 100=total damage to plant, 0=no damage to plant, read-out: Barnyardgrass damage rating; for pest or weed control at 250 g/ha: 250 g ai/ha
Procedure, shortened: as §1

[4] = test system: velvetleaf (Abutilon theophrasti); experiment: Test G Pre-Emergence Protocol; settings: evaluated after 13 days; for pest or weed control at 15.625 g/ha / pest or weed control at 62.5 g/ha / pest or weed control at 250 g/ha: Abutilon theophrasti, pre-emergence, 312 h; for pest or weed control at 15.625 g/ha / pest or weed control at 250 g/ha: read-out: Velvetleaf damage rating (100=total damage to plant; 0=no damage to plant); for pest or weed control at 62.5 g/ha: 62.5 g ai/ha, 100=total damage to plant, 0=no damage to plant, read-out: Velvetleaf damage rating
Procedure, shortened: as §1

[5] = test system: ivy-leaved morning glory (Ipomoea hederacea); experiment: Test G Pre-Emergence Protocol; settings: evaluated after 13 days; for pest or weed control at 15.625 g/ha / pest or weed control at 62.5 g/ha / pest or weed control at 250 g/ha: Ipomoea, pre-emergence, 312 h; for pest or weed control at 15.625 g/ha: 15.625 g ai/ha; for pest or weed control at 15.625 g/ha / pest or weed control at 250 g/ha: read-out: Morningglory, Ivy-leaved damage rating (100=total damage to plant; 0=no damage to plant); for pest or weed control at 62.5 g/ha: 62.5 g ai/ha, 100=total damage to plant, 0=no damage to plant, read-out: Morningglory, Ivy-leaved damage rating
Procedure, shortened: as §1

[6] = test system: giant foxtail (Setaria faberi); experiment: Test G Pre-Emergence Protocol; settings: Setaria faberi, pre-emergence, 312 h, evaluated after 13 days; for pest or weed control at 15.625 g/ha: 15.625 g ai/ha; for pest or weed control at 15.625 g/ha / pest or weed control at 250 g/ha: read-out: Foxtail, Giant damage rating (100=total damage to plant; 0=no damage to plant); for pest or weed control at 62.5 g/ha: 62.5 g ai/ha, 100=total damage to plant, 0=no damage to plant, read-out: Foxtail, Giant damage rating; for pest or weed control at 250 g/ha: 250 g ai/ha
Procedure, shortened: as §1

corn (Zea mays) [7] = experiment: Test G Post-Emergence Protocol; settings: Zea mays, post-emergence, 312 h, read-out: Corn damage rating; for plant injury at 15.625 g/ha: 15.625 g ai/ha, evaluated after 13 days (100=total damage to plant; 0=no damage to plant); for plant injury at 62.5 g/ha: 62.5 g ai/ha; for plant injury at 62.5 g/ha / plant injury at 250 g/ha: evaluated after 13 days, 100=total damage to plant, 0=no damage to plant; for plant injury at 250 g/ha: 250 g ai/ha
Procedure, shortened: (§2)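 Seedlings grown 8 days in soil in a glasshouse (24/16 °C day/night, 14 h light, 65% humidity) were sprayed post-emergence with compound in acetone/water 50:50 plus 0.5% Tween 20 at 15.625, 62.5 or 250 g/ha. Damage was scored after 13 days on a 0–100 scale (100 = total damage).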

[8] = test system: redroot pigweed (Amaranthus retroflexus); experiment: Test G Post-Emergence Protocol; settings: Amaranthus retroflexus, post-emergence, 312 h, read-out: Pigweed, Redroot damage rating; for pest or weed control at 15.625 g/ha: 15.625 g ai/ha, evaluated after 13 days (100=total damage to plant; 0=no damage to plant); for pest or weed control at 62.5 g/ha: 62.5 g ai/ha; for pest or weed control at 62.5 g/ha / pest or weed control at 250 g/ha: evaluated after 13 days, 100=total damage to plant, 0=no damage to plant; for pest or weed control at 250 g/ha: 250 g ai/ha
Procedure, shortened: as §2

[9] = test system: barnyardgrass (Echinochloa crus-galli); experiment: Test G Post-Emergence Protocol; settings: Echinochloa crus-galli, post-emergence, 312 h, read-out: Barnyardgrass damage rating; for pest or weed control at 15.625 g/ha: 15.625 g ai/ha, evaluated after 13 days (100=total damage to plant; 0=no damage to plant); for pest or weed control at 62.5 g/ha: 62.5 g ai/ha; for pest or weed control at 62.5 g/ha / pest or weed control at 250 g/ha: evaluated after 13 days, 100=total damage to plant, 0=no damage to plant; for pest or weed control at 250 g/ha: 250 g ai/ha
Procedure, shortened: as §2

[10] = test system: velvetleaf (Abutilon theophrasti); experiment: Test G Post-Emergence Protocol; settings: Abutilon theophrasti, post-emergence, 312 h, read-out: Velvetleaf damage rating; for pest or weed control at 15.625 g/ha: 15.625 g ai/ha, evaluated after 13 days (100=total damage to plant; 0=no damage to plant); for pest or weed control at 62.5 g/ha: 62.5 g ai/ha; for pest or weed control at 62.5 g/ha / pest or weed control at 250 g/ha: evaluated after 13 days, 100=total damage to plant, 0=no damage to plant; for pest or weed control at 250 g/ha: 250 g ai/ha
Procedure, shortened: as §2

[11] = test system: ivy-leaved morning glory (Ipomoea hederacea); experiment: Test G Post-Emergence Protocol; settings: Ipomoea, post-emergence, 312 h, read-out: Morningglory, Ivy-leaved damage rating; for pest or weed control at 15.625 g/ha: 15.625 g ai/ha, evaluated after 13 days (100=total damage to plant; 0=no damage to plant); for pest or weed control at 62.5 g/ha: 62.5 g ai/ha; for pest or weed control at 62.5 g/ha / pest or weed control at 250 g/ha: evaluated after 13 days, 100=total damage to plant, 0=no damage to plant; for pest or weed control at 250 g/ha: 250 g ai/ha
Procedure, shortened: as §2

[12] = test system: giant foxtail (Setaria faberi); experiment: Test G Post-Emergence Protocol; settings: Setaria faberi, post-emergence, 312 h, read-out: Foxtail, Giant damage rating; for pest or weed control at 15.625 g/ha: 15.625 g ai/ha, evaluated after 13 days (100=total damage to plant; 0=no damage to plant); for pest or weed control at 62.5 g/ha: 62.5 g ai/ha; for pest or weed control at 62.5 g/ha / pest or weed control at 250 g/ha: evaluated after 13 days, 100=total damage to plant, 0=no damage to plant; for pest or weed control at 250 g/ha: 250 g ai/ha
Procedure, shortened: as §2

Structure (SMILES) | plant injury at 62.5 g/ha (corn (Zea mays) [1]) [%] | pest or weed control at 62.5 g/ha [2] [%] | pest or weed control at 15.625 g/ha [3] [%] | pest or weed control at 62.5 g/ha [3] [%] | pest or weed control at 250 g/ha [3] [%] | pest or weed control at 62.5 g/ha [4] [%] | pest or weed control at 15.625 g/ha [5] [%] | pest or weed control at 62.5 g/ha [5] [%] | pest or weed control at 15.625 g/ha [6] [%] | pest or weed control at 62.5 g/ha [6] [%] | pest or weed control at 250 g/ha [6] [%] | plant injury at 15.625 g/ha (corn (Zea mays) [7]) [%] | plant injury at 62.5 g/ha (corn (Zea mays) [7]) [%] | plant injury at 250 g/ha (corn (Zea mays) [7]) [%] | pest or weed control at 15.625 g/ha [8] [%] | pest or weed control at 62.5 g/ha [8] [%] | pest or weed control at 250 g/ha [8] [%] | pest or weed control at 15.625 g/ha [9] [%] | pest or weed control at 62.5 g/ha [9] [%] | pest or weed control at 250 g/ha [9] [%] | other results
CN1C[C@@H](c2ccc(C(F)(F)F)cc2)[C@H](C(=O)Nc2ccncc2F)C1=O (racemic) [Compound 1652] | 0 | 0 | 0 | 0 | 0 | 0 | 0 | 0 | 0 | 10 | 30 | 0 | 0 | 0 | 0 | 0 | 0 | 0 | 20 | 30 | plant injury at 15.625 g/ha (corn (Zea mays) [1]; 15.625 g ai/ha): 0%; plant injury at 250 g/ha (corn (Zea mays) [1]; 250 g ai/ha): 10%; pest or weed control at 15.625 g/ha ([2]; 15.625 g ai/ha): 0%; pest or weed control at 250 g/ha ([2]; 250 g ai/ha): 0%; pest or weed control at 15.625 g/ha ([4]; 15.625 g ai/ha): 0%; pest or weed control at 250 g/ha ([4]; 250 g ai/ha): 0%; pest or weed control at 250 g/ha ([5]; 250 g ai/ha): 0%; pest or weed control at 15.625 g/ha [10]: 0%; pest or weed control at 62.5 g/ha [10]: 0%; pest or weed control at 250 g/ha [10]: 0%; pest or weed control at 15.625 g/ha [11]: 0%; pest or weed control at 62.5 g/ha [11]: 0%; pest or weed control at 250 g/ha [11]: 0%; pest or weed control at 15.625 g/ha [12]: 0%; pest or weed control at 62.5 g/ha [12]: 20%; pest or weed control at 250 g/ha [12]: 40%
CN1C[C@H](c2cccc(C(F)(F)F)c2)[C@@H](C(=O)Nc2cnccc2F)C1=O (racemic) [Compound 1745] | 0 | 0 | 0 | 0 | 60 | 0 | 0 | 0 | 0 | 10 | 50 | 0 | 0 | 0 | 0 | 0 | 20 | 10 | 70 | 80 | plant injury at 15.625 g/ha (corn (Zea mays) [1]; 15.625 g ai/ha): 0%; plant injury at 250 g/ha (corn (Zea mays) [1]; 250 g ai/ha): 0%; pest or weed control at 15.625 g/ha ([2]; 15.625 g ai/ha): 0%; pest or weed control at 250 g/ha ([2]; 250 g ai/ha): 20%; pest or weed control at 15.625 g/ha ([4]; 15.625 g ai/ha): 0%; pest or weed control at 250 g/ha ([4]; 250 g ai/ha): 0%; pest or weed control at 250 g/ha ([5]; 250 g ai/ha): 10%; pest or weed control at 15.625 g/ha [10]: 0%; pest or weed control at 62.5 g/ha [10]: 0%; pest or weed control at 250 g/ha [10]: 0%; pest or weed control at 15.625 g/ha [11]: 0%; pest or weed control at 62.5 g/ha [11]: 30%; pest or weed control at 250 g/ha [11]: 40%; pest or weed control at 15.625 g/ha [12]: 10%; pest or weed control at 62.5 g/ha [12]: 60%; pest or weed control at 250 g/ha [12]: 70%
COc1c(Cl)ccc([C@H]2CN(C)C(=O)[C@@H]2C(=O)Nc2cccc(F)c2F)c1F [Compound 1773] | 80 | 20 | 90 | 90 | 90 | 30 | 0 | 60 | 90 | 90 | 90 | 70 | 80 | 80 | 20 | 20 | 40 | 80 | 80 | 80 | Corn damage rating (100=total damage to plant; 0=no damage to plant) (corn (Zea mays) [1]; 15.625 g ai/ha): 70; Corn damage rating (100=total damage to plant; 0=no damage to plant) (corn (Zea mays) [1]; 250 g ai/ha): 80; Pigweed, Redroot damage rating (100=total damage to plant; 0=no damage to plant) ([2]; 15.625 g ai/ha): 20; Pigweed, Redroot damage rating (100=total damage to plant; 0=no damage to plant) ([2]; 250 g ai/ha): 70; Velvetleaf damage rating (100=total damage to plant; 0=no damage to plant) ([4]; 15.625 g ai/ha): 10; Velvetleaf damage rating (100=total damage to plant; 0=no damage to plant) ([4]; 250 g ai/ha): 60; Morningglory, Ivy-leaved damage rating (100=total damage to plant; 0=no damage to plant) ([5]; 250 g ai/ha): 80; pest or weed control at 15.625 g/ha [10]: 0%; pest or weed control at 62.5 g/ha [10]: 20%; pest or weed control at 250 g/ha [10]: 40%; pest or weed control at 15.625 g/ha [11]: 20%; pest or weed control at 62.5 g/ha [11]: 10%; pest or weed control at 250 g/ha [11]: 60%; pest or weed control at 15.625 g/ha [12]: 80%; pest or weed control at 62.5 g/ha [12]: 80%; pest or weed control at 250 g/ha [12]: 80%
